Values quoted from earlier work, collected in patent US20170096549A1, “MULTIVALENT CATION FORMULATIONS OF PARTIALLY DESULFATED HEPARINS” (Cantex Pharmaceuticals, Inc., priority 2014, published 2017).
Where two headings read alike, the source gives them in different places.

What was measured:
[1] = target: IIa (Homo sapiens, UniProt P00734+P01008)
[2] = target: anti-thrombin III (Homo sapiens, UniProt P01008)
[3] = target: Xa (Homo sapiens, UniProt P00742)
[4] = tested on: anti-coagulant activity

Chain of anti-thrombin III (P01008 33-464, species assumed): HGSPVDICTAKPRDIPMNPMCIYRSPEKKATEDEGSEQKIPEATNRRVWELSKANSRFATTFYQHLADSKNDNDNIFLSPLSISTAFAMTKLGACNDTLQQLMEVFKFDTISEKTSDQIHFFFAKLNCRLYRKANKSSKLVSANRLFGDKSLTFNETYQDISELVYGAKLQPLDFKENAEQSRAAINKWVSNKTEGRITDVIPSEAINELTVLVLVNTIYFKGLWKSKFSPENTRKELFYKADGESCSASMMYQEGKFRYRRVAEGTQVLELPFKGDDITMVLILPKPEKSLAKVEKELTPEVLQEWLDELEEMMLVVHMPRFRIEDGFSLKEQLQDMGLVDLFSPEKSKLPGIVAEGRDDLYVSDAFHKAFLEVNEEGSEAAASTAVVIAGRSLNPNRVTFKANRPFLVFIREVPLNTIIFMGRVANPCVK
Chain of Xa (P01008 33-464 partner): as the sequence (P01008 33-464, species assumed) above
Chain of Xa (P00742 235-488 limits assumed): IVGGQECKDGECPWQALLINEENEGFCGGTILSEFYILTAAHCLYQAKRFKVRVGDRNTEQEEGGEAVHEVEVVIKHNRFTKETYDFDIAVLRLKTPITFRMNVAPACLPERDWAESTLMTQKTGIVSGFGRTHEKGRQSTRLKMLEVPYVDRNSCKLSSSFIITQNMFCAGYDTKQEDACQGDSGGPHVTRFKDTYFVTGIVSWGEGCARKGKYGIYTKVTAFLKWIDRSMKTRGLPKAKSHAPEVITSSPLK

## Unfractionated heparin
[1]
  anti-IIa activity: 165-190 U/mg
[2]
  Kd for anti-thrombin III: ~22 µg/mL
[2]; listed as heparin
  Kd: 1560 nM
[2]; listed as unfractionated heparin
  Kd: ~1560 nM
[3]
  anti-Xa activity: 165-190 U/mg
[4]
  anti-coagulant activity in the USP anti-coagulant assay: 165-190 U/mg
